In brackets after ≈: the same amount, converted by molar mass.
Experiments:
[1] = system: H1N1 influenza A virus strain A/FM/1/47; experiment: Anti-influenza virus activity in vitro (inhibition of virus replication in MDCK cells); type: cell-based; conditions: 72 h, read-out: EC50 for in vitro inhibition of replication of H1N1 (FM1) influenza virus
[2] = PK study in rats, single oral gavage; type: in vivo; conditions: SD rats, single oral gavage 3.0 mg/kg
Description: SD rats were administered in a single oral gavage administration with different groups of drugs, including compound I-1-1-2, compound I-1-1-3, compound I-1-1-6, compound I-20, compound II-5, and Baloxavir Marboxil. After administration, plasma at different time points were collected to detect the drug content, and the pharmacokinetic parameters of different groups of drugs in SD rats were calculated and compared.
48 SD rats, weighing 180 g-220 g, with half male and half female, were randomly assigned to 6 groups according to their body weight, with 8 rats in each group. Animal grouping information was as follows:
(§1) After SD rats were randomly assigned to groups, they were fasted for more than 12 hours before administration and were allowed to drink water freely. Drinking water was prohibited from 1 hour before administration to 1 hour after administration. Food was provided 4 hours after administration. Each group was administered with a single oral gavage dose of 3.0 mg/kg. Approximately 0.2 mL of jugular vein blood was collected at 0 h before administration and 5 min, 10 min, 15 min, 30 min, 1 h, 2 h, 4 h, 6 h, 10 h, 24 h and 30 h after administration, and placed in EDTA-K2 anticoagulation tubes.
(§2) After the whole blood was collected, the plasma was separated by centrifugation at 4000 rpm for 10 min at 4° C., and then stored in a refrigerator at −80° C. for testing. The plasma drug concentration of samples in each group was determined by LC-MS/MS.
PK parameters were calculated using a non-compartmental model in Phoenix winnonlin 8.0. Data analysis included Cmax, Tmax, AUC0-t, AUC0-∞∞, t1/2 and other pharmacokinetic parameters.

[3] = PK study in cynomolgus monkeys, single oral gavage; type: in vivo; conditions: single oral gavage 5.0 mg/kg
Description: Cynomolgus monkeys were administered with a single oral gavage with different groups of drugs, including compound I-1-1-2, compound I-1-1-3 and Baloxavir Marboxil. After administration, plasma at different time points were collected to detect the drug content, and the pharmacokinetic parameters of different groups of drugs in cynomolgus monkeys were calculated and compared.
24 cynomolgus monkeys, aged 3-5 years old and weighing 3 kg-7 kg, with half male and half female, were used and randomly assigned to 3 groups according to their body weight, with 8 monkeys in each group. Animal grouping information was as follows:
as §1, with “After cynomolgus monkeys” for “After SD rats”, “of 5.0” for “of 3.0”, “Approximately 1.0” for “Approximately 0.2”, “h, 8 h, 12” for “h, 10”, “24 h, and 48” for “24”, “h (D2)” for “h and 30 h”
as §2
PK parameters were calculated using non-compartmental model in a Phoenix winnonlin 8.0. Data analysis included Cmax, Tmax, AUC0-t, AUC0-∞∞, t1/2 and other pharmacokinetic parameters.

| SMILES | EC50 [1] [µg/mL] | Bioavailability (Cmax and AUC0-t) compared with Compound I-20 and Compound II-5 groups [2] | also measured |
| --- | --- | --- | --- |
| COC(=O)OCOc1c2n(ccc1=O)N([C@@H]1c3ccccc3SCc3c1ccc(F)c3F)[C@@H]1COCCN1C2=O [Baloxavir Marboxil, reference compound] | 0.32 (≈ 0.56 µM) | significantly improved |  |
| CC(=O)O[C@@H](C)Oc1c2n(ccc1=O)N([C@@H]1c3ccccc3SCc3c1ccc(F)c3F)[C@@H]1COCCN1C2=O [Compound I-1-1-1] | 0.32 (≈ 0.562 µM) |  |  |
| CC(=O)O[C@H](C)Oc1c2n(ccc1=O)N([C@@H]1c3ccccc3SCc3c1ccc(F)c3F)[C@@H]1COCCN1C2=O [Compound I-1-1-2] | 0.032 (≈ 0.0562 µM) | significantly improved | Bioavailability (Cmax and AUC0-t) compared with Baloxavir Marboxil group [2]: significantly improved; Half-life (t1/2) rank among groups [2]: longest half-life; Bioavailability (Cmax and AUC0-t) compared with Baloxavir Marboxil group [3]: significantly improved; Exposure rank among groups [3]: highest exposure; Half-life rank among groups [3]: longest half-life |
| CC(=O)OC(C)Oc1c2n(ccc1=O)N([C@@H]1c3ccccc3SCc3c1ccc(F)c3F)[C@@H]1COCCN1C2=O (some centres unmarked) [Compound I-1-1-3] | 0.32 (≈ 0.562 µM) | significantly improved | Bioavailability (Cmax and AUC0-t) compared with Baloxavir Marboxil group [2]: significantly improved; Bioavailability (Cmax and AUC0-t) compared with Baloxavir Marboxil group [3]: significantly improved |
| CC(=O)OC(C)Oc1c2n(ccc1=O)N([C@@H]1c3ccccc3[Se]Cc3c1ccc(F)c3F)[C@@H]1COCCN1C2=O (some centres unmarked) [Compound I-1-1-6] | 0.32 (≈ 0.519 µM) |  |  |
| [2H]C([2H])([2H])C(=O)OC(C)Oc1c2n(ccc1=O)N([C@@H]1c3ccccc3SCc3c1ccc(F)c3F)[C@@H]1COCCN1C2=O (some centres unmarked) [Compound I-20, reference compound] | 0.32 (≈ 0.559 µM) |  |  |
| CC(=O)OCOc1c2n(ccc1=O)N([C@@H]1c3ccccc3SCc3c1ccc(F)c3F)[C@@H]1COCCN1C2=O [Compound II-5, reference compound] | 0.32 (≈ 0.576 µM) |  |  |
